Legend:
5-HT2B receptor [1] = target: T1, 5-HT2B receptor (Homo sapiens, UniProt P41595); test: 5-HT2B receptor binding, 3H-LSD ligand displacement assay; details: for inhibition at 0.001 µM: 0.001 uM compound; for inhibition at 0.01 µM: 0.01 uM compound; for inhibition at 0.1 µM: 0.1 uM compound
T1 construct: host or cells: CHO-K1
Procedure: 5-HT2B receptor binding (performed at Eurofins Panlabs Taiwan, Ltd.) to human receptor protein expressed in CHO-K1 cells was determined in a ligand displacement assay using ^3H-lysergic acid diethylamide (LSD) as radioligand and ketanserine as a standard reference compound. Data is presented as % displacement of radioligand at indicated compound concentrations, see Table 1 and Table 2.

5-HT2B receptor [2] = target: T1, 5-HT2B receptor; test: 5-HT2B receptor antagonism, inhibition of 5-HT stimulated IP-1 accumulation (HTRF) in CHO-K1 cells; type: cell-based; details: % inhibition of 5-HT (5 nM) induced effect
Procedure: (§1) 5-HT2B receptor antagonism (performed at Eurofins Panlabs Taiwan, Ltd.) was determined in CHO-K1 cells expressing human receptor protein as inhibition of 5-HT (5 nM) stimulated IP-1 accumulation measured by HTRF quantitation. SB 206553 was used as a standard reference compound. The antagonistic response is expressed as % inhibition of the 5-HT induced effect.

5-HT2B receptor [3] = target: T1, 5-HT2B receptor; test: 5-HT2B receptor agonism, IP-1 accumulation in CHO-K1 cells without prior 5-HT stimulation; type: cell-based; details: % of IP-1 accumulation induced by 5-HT (1 uM)
Procedure: as §1
5-HT2B receptor agonism (performed at Eurofins Panlabs Taiwan, Ltd.) was determined in the same model as described above in Ex. 117. without prior stimulation with 5-HT. The agonistic response is expressed as % of the IP-1 accumulation induced by 5-HT (1 uM) stimulation.

T1 sequence (P41595 whole entry): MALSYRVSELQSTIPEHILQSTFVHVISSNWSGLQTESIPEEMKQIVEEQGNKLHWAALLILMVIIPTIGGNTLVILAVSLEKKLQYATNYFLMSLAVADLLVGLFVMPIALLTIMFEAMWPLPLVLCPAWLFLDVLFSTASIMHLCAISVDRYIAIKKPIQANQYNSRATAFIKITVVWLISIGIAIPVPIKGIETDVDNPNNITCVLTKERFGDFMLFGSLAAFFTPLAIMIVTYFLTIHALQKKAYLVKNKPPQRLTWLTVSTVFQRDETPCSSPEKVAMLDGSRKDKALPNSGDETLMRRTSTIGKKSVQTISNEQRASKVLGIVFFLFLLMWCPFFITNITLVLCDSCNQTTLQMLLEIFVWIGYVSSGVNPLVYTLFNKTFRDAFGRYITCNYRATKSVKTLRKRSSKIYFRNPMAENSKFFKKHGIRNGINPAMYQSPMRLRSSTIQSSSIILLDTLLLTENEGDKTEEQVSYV

Molecule	inhibition at 0.001 µM (5-HT2B receptor [1]) [%]	inhibition at 0.01 µM (5-HT2B receptor [1]) [%]	inhibition at 0.1 µM (5-HT2B receptor [1]) [%]	inhibition at 0.01 µM (5-HT2B receptor [2]) [%]	inhibition at 0.1 µM (5-HT2B receptor [2]) [%]	inhibition at 1 µM (5-HT2B receptor [2]) [%]	activation at 0.01 µM (5-HT2B receptor [3]) [%]	activation at 0.1 µM (5-HT2B receptor [3]) [%]	also measured
C[C@@H]1CN(C(=N)N)N=C1c1ccccc1O (single isomer, unassigned) [Example 38]	19	76	98	75	100	102	-2	0	inhibition at 1 µM (5-HT2B receptor [1]; 1 uM compound): 102%; inhibition at 10 µM (5-HT2B receptor [1]; 10 uM compound): 104%; inhibition at 0.0001 µM (5-HT2B receptor [2]): 23%; inhibition at 0.001 µM (5-HT2B receptor [2]): 27%; activation at 0.0001 µM (5-HT2B receptor [3]): -2%; activation at 0.001 µM (5-HT2B receptor [3]): -1%; activation at 1 µM (5-HT2B receptor [3]): -2%
C[C@@H]1CN(C(=N)N)N=C1c1cccc(Cl)c1O (single isomer, unassigned) [Example 73, (R)*-3-(3-chloro-2-hydroxyphenyl)-4-methyl-4,5-dihydro-1H-pyrazole-1-carboximidamide]	49	83	99	97	97	98	3	3	inhibition at 0.0001 µM (5-HT2B receptor [2]): 29%; inhibition at 0.001 µM (5-HT2B receptor [2]): 87%; activation at 0.0001 µM (5-HT2B receptor [3]): 3%; activation at 0.001 µM (5-HT2B receptor [3]): 4%
C[C@@H]1CN(C(=N)NCc2ccccc2)N=C1c1cccc(Cl)c1O (single isomer, unassigned) [Example 76, (R)*—N-Benzyl-3-(3-chloro-2-hydroxyphenyl)-4-methyl-4,5-dihydro-1H-pyrazole-1-carboximidamide]	91	101	103	99	99	95	3	-1	inhibition at 0.0001 µM (5-HT2B receptor [2]): 79%; inhibition at 0.001 µM (5-HT2B receptor [2]): 95%; activation at 0.0001 µM (5-HT2B receptor [3]): 0%; activation at 0.001 µM (5-HT2B receptor [3]): 1%
COc1ccccc1C1=NN(C(=N)N)CC1 [Example 1, 3-(2-Methoxyphenyl)-4,5-dihydro-1H-pyrazole-1-carboximidamide]				2	0	72	-1	-8	inhibition at 10 µM (5-HT2B receptor [2]): 107%; activation at 1 µM (5-HT2B receptor [3]): -5%; activation at 10 µM (5-HT2B receptor [3]): -1%
N=C(N)N1CCC(c2cccc3ccccc23)=N1 [Example 9, 3-(Naphthalen-1-yl)-4,5-dihydro-1H-pyrazole-1-carboximidamide]			81	20	76	103	-8	-8	inhibition at 1 µM (5-HT2B receptor [1]; 1 uM compound): 99%; inhibition at 0.001 µM (5-HT2B receptor [2]): 6%; inhibition at 10 µM (5-HT2B receptor [2]): 116%; activation at 0.001 µM (5-HT2B receptor [3]): -3%; activation at 1 µM (5-HT2B receptor [3]): -13%; activation at 10 µM (5-HT2B receptor [3]): -5%
N=C(NCc1ccccc1)N1CCC(c2ccccc2Cl)=N1 [Example 21, N-Benzyl-3-(2-chlorophenyl)-4,5-dihydro-1H-pyrazole-1-carboximidamide]			59	10	41	104	-5	-9	inhibition at 1 µM (5-HT2B receptor [1]; 1 uM compound): 96%; inhibition at 0.001 µM (5-HT2B receptor [2]): -6%; inhibition at 10 µM (5-HT2B receptor [2]): 113%; activation at 0.001 µM (5-HT2B receptor [3]): 3%; activation at 1 µM (5-HT2B receptor [3]): -6%; activation at 10 µM (5-HT2B receptor [3]): -13%
N=C(NCc1ccccc1)N1CCC(c2ccccc2O)=N1 [Example 22, N-Benzyl-3-(2-hydroxyphenyl)-4,5-dihydro-1H-pyrazole-1-carboximidamide]			89	28	88	108	-10	-1	inhibition at 1 µM (5-HT2B receptor [1]; 1 uM compound): 102%; inhibition at 0.001 µM (5-HT2B receptor [2]): 14%; inhibition at 10 µM (5-HT2B receptor [2]): 110%; activation at 0.001 µM (5-HT2B receptor [3]): -5%; activation at 1 µM (5-HT2B receptor [3]): -3%; activation at 10 µM (5-HT2B receptor [3]): -2%
CC1CN(C(=N)Nc2ccc(Cl)cc2)N=C1c1ccccc1O (stereo not shown) [Example 103, N-(4-Chlorophenyl)-3-(2-hydroxyphenyl)-4-methyl-4,5-dihydro-1H-pyrazole-1-carboximidamide]	42	90	99						
COc1ccc(NC(=N)N2CC(C)C(c3ccccc3OCc3ccccc3)=N2)cc1 (stereo not shown) [Example 104, 3-(2-(Benzyloxy)phenyl)-N-(4-methoxyphenyl)-4-methyl-4,5-dihydro-1H-pyrazole-1-carboximidamide]	-9	33	77						
COc1ccc(NC(=N)N2CC(C)C(c3ccccc3O)=N2)cc1 (stereo not shown) [Example 105, 3-(2-Hydroxyphenyl)-N-(4-methoxyphenyl)-4-methyl-4,5-dihydro-1H-pyrazole-1-carboximidamide]	46	95	106						
COc1c(Cl)cccc1C1=NN(C(=N)NCC(F)(F)C(F)(F)C(F)(F)F)CC1C (stereo not shown) [Example 106, 3-(3-Chloro-2-methoxyphenyl)-N-(2,2,3,3,4,4,4-heptafluorobutyl)-4-methyl-4,5-dihydro-1H-pyrazole-1-carboximidamide]	16	57	93						
CC1CN(C(=N)NCC(F)(F)C(F)(F)C(F)(F)F)N=C1c1cccc(Cl)c1O (stereo not shown) [Example 107, 3-(3-Chloro-2-hydroxyphenyl)-N-(2,2,3,3,4,4,4-heptafluorobutyl)-4-methyl-4,5-dihydro-1H-pyrazole-1-carboximidamide]	51	91	100						
COc1c(Cl)cccc1C1=NN(C(=N)Nc2ccc(F)cc2)CC1C (stereo not shown) [Example 108, 3-(3-Chloro-2-methoxyphenyl)-N-(4-fluorophenyl)-4-methyl-4,5-dihydro-1H-pyrazole-1-carboximidamide]	29	83	101						
CC1CN(C(=N)Nc2ccc(F)cc2)N=C1c1cccc(Cl)c1O (stereo not shown) [Example 109, 3-(3-Chloro-2-hydroxyphenyl)-N-(4-fluorophenyl)-4-methyl-4,5-dihydro-1H-pyrazole-1-carboximidamide]	72	99	104						
COc1c(Cl)cccc1C1=NN(C(=N)Nc2ccc(Cl)cc2)CC1C (stereo not shown) [Example 110, 3-(3-Chloro-2-methoxyphenyl)-N-(4-chlorophenyl)-4-methyl-4,5-dihydro-1H-pyrazole-1-carboximidamide]	41	83	97						
CC1CN(C(=N)Nc2ccc(Cl)cc2)N=C1c1cccc(Cl)c1O (stereo not shown) [Example 111, 3-(3-Chloro-2-hydroxyphenyl)-N-(4-chlorophenyl)-4-methyl-4,5-dihydro-1H-pyrazole-1-carboximidamide]	80	99	101						
COc1c(Cl)cccc1C1=NN(C(=N)Nc2ccc(C(F)(F)F)cc2)CC1C (stereo not shown) [Example 112, 3-(3-Chloro-2-methoxyphenyl)-4-methyl-N-(4-(trifluoromethyl)phenyl)-4,5-dihydro-1H-pyrazole-1-carboximidamide]	1	77	97						
CC1CN(C(=N)Nc2ccc(C(F)(F)F)cc2)N=C1c1cccc(Cl)c1O (stereo not shown) [Example 113, 3-(3-Chloro-2-hydroxyphenyl)-4-methyl-N-(4-(trifluoromethyl)phenyl)-4,5-dihydro-1H-pyrazole-1-carboximidamide]	59	95	99						
CCOC(=O)NC(=N)N1CC(C)C(c2cccc(Cl)c2OC(=O)OCC)=N1 (stereo not shown) [Example 118, Ethyl ((3-(3-chloro-2-((ethoxycarbonyl)oxy)phenyl)-4-methyl-4,5-dihydro-1H-pyrazol-1-yl)(imino)methyl)carbamate]		0	54						inhibition at 1 µM (5-HT2B receptor [1]; 1 uM compound): 91%
CCOC(=O)NC(=N)N1CC(C)C(c2cccc(Cl)c2O)=N1 (stereo not shown) [Example 119, Ethyl ((3-(3-chloro-2-hydroxyphenyl)-4-methyl-4,5-dihydro-1H-pyrazol-1-yl)(imino)methyl)carbamate]		50	89						inhibition at 1 µM (5-HT2B receptor [1]; 1 uM compound): 99%
(R)-3-(2-Hydroxyphenyl)-4-methyl-4,5-dihydro-1H-pyrazole-1-carboximidamide [Example 36]									5-HT2B receptor binding (% displacement) (5-HT2B receptor [1]; 1 uM compound): 90%; 5-HT2B receptor binding (% displacement) (5-HT2B receptor [1]; 10 uM compound): 99%

From US10544103B2, “5-HT2 antagonists” (ANAMAR AB, priority 2015, dated 2020)
